Laboratory results as given in patent publication US11477985B2, “Herbicidal mixtures comprising L-glufosinate or its salt and at least one photosynthesis inhibitor” (BASF SE, priority 2017, dated 2022).

How the values were obtained:
Assay type in all cases: in vivo
Avena fatua = assay: Post emergence treatment, greenhouse pot test, herbicidal activity against AVEFA
Excerpt: (§1) Synergism can be described as an interaction where the combined effect of two or more compounds is greater than the sum of the individual effects of each of the compounds. The presence of a synergistic effect in terms of percent control, between two mixing partners (X and Y) can be calculated using the Colby equation (Colby, S. R., 1967, Calculating Synergistic and
(§2) When the observed combined control effect is greater than the expected (calculated) combined control effect (E), then the combined effect is synergistic.
(§3) However, the weed control afforded by the compounds, mixtures or compositions is not limited to these species. The analysis of synergism or antagonism between the mixtures or compositions was determined using Colby's equation.
(§4) The culture containers used were plastic flowerpots containing loamy sand with approximately 3.0% of humus as the substrate. The seeds of the test plants were sown separately for each species and/or resistant biotype. For the pre-emergence treatment, the active ingredients, which had been suspended or emulsified in water, were applied directly after sowing by means of finely distributing nozzles. The containers were irrigated gently to promote germination and growth and subsequently covered with transparent plastic hoods until the plants had rooted. This cover caused uniform germination of the test plants, unless this had been impaired by the active ingredients. For the post-emergence treatment, the test plants were first grown to a height of 3 to 15 cm, depending on the plant habit, and only then treated with the active ingredients which had been suspended or emulsified in water. For this purpose, the test plants were either sown directly and grown in the same containers, or they were first grown separately as seedlings and transplanted into the test containers a few days prior to treatment. Depending on the species, the plants were kept at 10-25° C. or 20-35° C., respectively. The test period extended to 20 days after treatment. During this time, the plants were tended, and their response to the individual treatments was evaluated. […]

Abutilon theophrasti = assay: Post emergence treatment, greenhouse pot test, herbicidal activity against ABUTH; details: scale 0 to 100
Excerpt: as §1, §2, §3, §4

Setaria viridis = assay: Post emergence treatment, greenhouse pot test, herbicidal activity against SETVI; details: scale 0 to 100
Excerpt: as §1, §2, §3, §4

What does the source list for `CN(C)C(=O)Nc1ccc(Cl)c(Cl)c1` [Diuron, diuron]?
Herbicidal activity against AVEFA, Found (Avena fatua; Diuron 125 g ai/ha alone, scale 0 to 100): 20; Herbicidal activity against AVEFA, Found (Avena fatua; Diuron 250 g ai/ha alone, scale 0 to 100): 30

`CN(C)C(=O)Nc1cccc(C(F)(F)F)c1` [Fluometuron, fluometuron] was tested. Which “Herbicidal activity against ABUTH, Found” value (Abutilon theophrasti; Fluometuron 125 g ai/ha alone) did it give?
The value was 0.

And the “Herbicidal activity against ABUTH, Found” value (Abutilon theophrasti; Fluometuron 250 g ai/ha alone)?
Its value is 20.

Which results are given for `CP(=O)(O)CC[C@H](N)C(=O)O` [L-Glufosinate, (2S)-2-amino-4-[hydroxy(methyl)phosphinoyl]butyric acid]?
Herbicidal activity against ABUTH, Found (Abutilon theophrasti; L-Glufosinate 75 g ai/ha alone): 0; Herbicidal activity against SETVI, Found (Setaria viridis; L-Glufosinate 75 g ai/ha alone): 0; Herbicidal activity against SETVI, Found (Setaria viridis; L-Glufosinate 150 g ai/ha alone): 70; Herbicidal activity against AVEFA, Found (Avena fatua; L-Glufosinate 300 g ai/ha alone, scale 0 to 100, mean of two replications): 20

Which “Herbicidal activity against SETVI, Found” value (Setaria viridis; Thidiazuron 50 g ai/ha alone) does the source give for `O=C(Nc1ccccc1)Nc1cnns1` [Thidiazuron, thiadizuron] here?
The value was 0.
